In article PMC3626250, “Effects of Borneol on Pharmacokinetics and Tissue Distribution of Notoginsenoside R1 and Ginsenosides Rg1 and Re in Panax notoginseng in Rabbits” (Journal of Analytical Methods in Chemistry, 2013):
Like-named read-outs stand apart in the source and are kept apart here. Marks after values point to notes of the source that are not given here.

Legend:
[1] = Tissue distribution study in rabbits after oral Panax notoginseng extract with or without Borneol; format: in vivo, New Zealand rabbits; details: New Zealand, rabbit; for Kp at 1 h: oral, Borneol combined with Panax notoginseng; for concentration at 0.5 h / concentration at 1 h / concentration at 3 h: po; for concentration at 3 h: 3 mL·kg^−1, 3.0 h
Method: (§1) Frozen plasma and tissue samples were thawed in a water bath at 37°C and were then vortexed followed by centrifuging at 5000 r·min^−1 for 5 min. An aliquot of 1.0 mL of the supernatant from each sample was loaded onto C18 Bond Elute Solid phase extraction (SPE) cartridges (1000 mg, 1 cc reservoir, Varian, Harbor City, CA, USA) pretreated with 2.0 mL hexane, isopropanol, methanol, and water, sequentially. The SPE cartridges were then washed with 1.0 mL water, 20% methanol/water solution, 40% methanol/water solution, and 60% methanol/water solution, sequentially. Finally, analytes were eluted twice with 1.0 mL of 70% methanol/water solution. The eluant was evaporated to dryness under nitrogen. The residues were then reconstituted in 1.0 mL mobile phase. An aliquot of 10 μL was injected into the LC-MS system.
One group of rabbits (n = 18) was orally administered a dose of 3.0 mL·kg^−1 Panax notoginseng extract, while another group of rabbits (n = 18) was orally given 3.0 mL·kg^−1 Panax notoginseng extract combined with Borneol. At 0.5, 1, and 3 h after administration, blood samples were collected from the central ear artery of six rabbits from each group, and the heart, liver, lung, kidney, and brain were immediately removed after animals were sacrificed by decapitation. An accurately weighed amount of tissue (1 g) was collected to be rinsed, dried, minced, and homogenized (400 r·min^−1) in normal saline (1.5 mL). All of the samples were stored at −70°C and were processed prior to analysis with the proposed method as described in Section 2.6.

[2] = Pharmacokinetics study in rabbits after oral Panax notoginseng extract with or without Borneol (plasma, SPE-HPLC-MS); format: in vivo, New Zealand rabbits; details: for Cmax / Tmax / CL/F / half-life / AUC(0-inf) / AUC(0-t): New Zealand, rabbit, plasma; for CL/F: read-out: CL/F; for half-life: read-out: t 1/2β; for AUC(0-inf) / AUC(0-t): po
Method: Liquid chromatography was carried out on an Agilent 1100 HPLC system with an auto sampler, a quaternary pump and a vacuum degasser (Waldoboro, Frankfurt, Germany). Operations were controlled by Agilent Chemstation 4.2 software (Littleforts, Philadelphia, USA). Separations were achieved on a reversed-phase HPLC column (Zorbax SB-C18 150 × 2.1 mm, 5.0 μm particle size). A solution of acetonitrile and water (V : V, 20 : 80) with 0.1% (V : V) ammonium formate was used as the mobile phase. The flow rate was set at 0.3 mL·min^−1 and the column temperature was 25°C. Under these conditions, NGR1, GRg1, and GRe in plasma samples were separated efficiently without any interferences.
MS^n detection was performed on an Agilent SL trap MS system (Waldoboro, Frankfurt, Germany). The ion source-dependent (electrospray ionization) conditions were the same for all analyses with a spraying voltage of −4500 V in the negative ion mode. The pressure of the nebulizing gas (nitrogen) was set at 35 p.s.i. The flow rate of the drying gas (nitrogen) was set at 7.0 L·min^−1 with the temperature of 325°C. The collision gas (He) for the MS^n mode at trap was set at flow of 4 (instrument unit). The voltage of the capillary was set at 4000 V, and its end plate offset was −500 V. Scan range was from 500 to 1500 m/z.
as §1
Eighteen rabbits were randomly divided into three groups of 6 subjects and were orally given 3.0 mL·kg^−1 normal saline, 3.0 mL·kg^−1 Panax notoginseng extract, and 3.0 mL·kg^−1 Panax notoginseng extract combined with Borneol, respectively. Plasma samples were collected in heparinized tubes from the central ear artery at 0.0, 5.0, 10.0, 20.0, 30.0, 45.0, 60.0, 75.0, 90.0, 120.0, 180.0, 300.0 and 480.0 min after dose. After each sampling, the same volume of 0.9% saline solution was injected from the ear vein to compensate the loss of blood. The plasma obtained was frozen at −70°C for storage and was processed prior to analysis with the proposed method as described in Section 2.6.
Statistical analysis of the biological data was performed using the Student's t-test. The drug analysis system 2.0 (DAS 2.0, T.C.M., Shanghai, China) was used to calculate the pharmacokinetic parameters, such as the area under curve (AUC), the maximum plasma concentration (C max), the time needed to reach the maximum plasma concentration (t max) and the half-life of absorption, and distribution and elimination (t 1/2Ka, t 1/2α, t 1/2β).

[3] = oral 3.0 mL·kg^−1 Panax notoginseng extract
[4] = oral 3.0 mL·kg^−1 Panax notoginseng extract combined with Borneol

## CC(C)=CCC[C@](C)(O[C@@H]1O[C@H](CO)[C@@H](O)[C@H](O)[C@H]1O)[C@H]1CC[C@]2(C)[C@@H]1[C@H](O)C[C@@H]1[C@@]3(C)CC[C@H](O)C(C)(C)[C@@H]3[C@@H](O[C@@H]3O[C@H](CO)[C@@H](O)[C@H](O)[C@H]3O[C@@H]3O[C@@H](C)[C@H](O)[C@@H](O)[C@H]3O)C[C@]12C [GRe, ginsenoside Re]
[1]; brain, peak levels at 1.0 h, read-out: level in brain, fold higher than the plasma concentrations
  Kp at 1 h: 1.14
[1]; brain, 3 mL·kg^−1, 0.5 h, oral Panax notoginseng with Borneol, read-out: Concentration in brain
  concentration at 0.5 h: 1800 ± 420 ng/g
[1]; brain, 3 mL·kg^−1, 0.5 h, oral Panax notoginseng, read-out: Concentration in brain
  concentration at 0.5 h: 1050 ± 420 ng/g
[1]; brain, 3 mL·kg^−1, 1.0 h, oral Panax notoginseng, read-out: Concentration in brain
  concentration at 1 h: 1210 ± 280 ng/g
[1]; brain, oral Panax notoginseng with Borneol, read-out: Concentration in brain
  concentration at 3 h: 1650 ± 230 ng/g
[1]; brain, oral Panax notoginseng, read-out: Concentration in brain
  concentration at 3 h: 630 ± 120 ng/g
[1]; brain, 1.0 h, oral Panax notoginseng with Borneol, read-out: Concentration in brain
  concentration at 1 h: 2760 ± 630 ng/g
[1]; heart, peak levels at 1.0 h, read-out: level in heart, fold higher than the plasma concentrations
  Kp at 1 h: 1.35
[1]; heart, 3 mL·kg^−1, 0.5 h, oral Panax notoginseng with Borneol, read-out: Concentration in heart
  concentration at 0.5 h: 2810 ± 740 ng/g
[1]; heart, 3 mL·kg^−1, 0.5 h, oral Panax notoginseng, read-out: Concentration in heart
  concentration at 0.5 h: 1650 ± 530 ng/g
[1]; heart, 3 mL·kg^−1, 1.0 h, oral Panax notoginseng, read-out: Concentration in heart
  concentration at 1 h: 2110 ± 280 ng/g
[1]; heart, oral Panax notoginseng with Borneol, read-out: Concentration in heart
  concentration at 3 h: 2240 ± 540 ng/g
[1]; heart, oral Panax notoginseng, read-out: Concentration in heart
  concentration at 3 h: 1140 ± 130 ng/g
[1]; heart, 1.0 h, oral Panax notoginseng with Borneol, read-out: Concentration in heart
  concentration at 1 h: 3280 ± 430 ng/g
[1]; kidney, at 1.0 h, read-out: level in kidney, fold higher than the plasma concentrations
  Kp at 1 h: 1
[1]; kidney, 3 mL·kg^−1, 0.5 h, oral Panax notoginseng with Borneol, read-out: Concentration in kidney
  concentration at 0.5 h: 2840 ± 530 ng/g
[1]; kidney, 3 mL·kg^−1, 0.5 h, oral Panax notoginseng, read-out: Concentration in kidney
  concentration at 0.5 h: 1630 ± 180 ng/g
[1]; kidney, 3 mL·kg^−1, 1.0 h, oral Panax notoginseng, read-out: Concentration in kidney
  concentration at 1 h: 1530 ± 220 ng/g
[1]; kidney, oral Panax notoginseng with Borneol, read-out: Concentration in kidney
  concentration at 3 h: 1610 ± 450 ng/g
[1]; kidney, oral Panax notoginseng, read-out: Concentration in kidney
  concentration at 3 h: 1150 ± 130 ng/g
[1]; kidney, 1.0 h, oral Panax notoginseng with Borneol, read-out: Concentration in kidney
  concentration at 1 h: 2430 ± 290 ng/g
[1]; liver, peak levels at 1.0 h, read-out: level in liver, fold higher than the plasma concentrations
  Kp at 1 h: 1.97
[1]; liver, 3 mL·kg^−1, 0.5 h, oral Panax notoginseng with Borneol, read-out: Concentration in liver
  concentration at 0.5 h: 3600 ± 460 ng/g
[1]; liver, 3 mL·kg^−1, 0.5 h, oral Panax notoginseng, read-out: Concentration in liver
  concentration at 0.5 h: 990 ± 330 ng/g
[1]; liver, 3 mL·kg^−1, 1.0 h, oral Panax notoginseng, read-out: Concentration in liver
  concentration at 1 h: 1300 ± 250 ng/g
[1]; liver, oral Panax notoginseng with Borneol, read-out: Concentration in liver
  concentration at 3 h: 2630 ± 810 ng/g
[1]; liver, oral Panax notoginseng, read-out: Concentration in liver
  concentration at 3 h: 690 ± 110 ng/g
[1]; liver, 1.0 h, oral Panax notoginseng with Borneol, read-out: Concentration in liver
  concentration at 1 h: 4770 ± 420 ng/g
[1]; lung, peak levels at 1.0 h, read-out: level in lung, fold higher than the plasma concentrations
  Kp at 1 h: 1.24
[1]; lung, 3 mL·kg^−1, 0.5 h, oral Panax notoginseng with Borneol, read-out: Concentration in lung
  concentration at 0.5 h: 2480 ± 690 ng/g
[1]; lung, 3 mL·kg^−1, 0.5 h, oral Panax notoginseng, read-out: Concentration in lung
  concentration at 0.5 h: 700 ± 410 ng/g
[1]; lung, 3 mL·kg^−1, 1.0 h, oral Panax notoginseng, read-out: Concentration in lung
  concentration at 1 h: 920 ± 130 ng/g
[1]; lung, oral Panax notoginseng with Borneol, read-out: Concentration in lung
  concentration at 3 h: 1530 ± 450 ng/g
[1]; lung, oral Panax notoginseng, read-out: Concentration in lung
  concentration at 3 h: 310 ± 440 ng/g
[1]; lung, 1.0 h, oral Panax notoginseng with Borneol, read-out: Concentration in lung
  concentration at 1 h: 2990 ± 170 ng/g
[1]; plasma, 3 mL·kg^−1, 0.5 h, oral Panax notoginseng, read-out: Concentration in plasma
  concentration at 0.5 h: 1780 ± 110 ng/mL
[1]; plasma, 3 mL·kg^−1, 1.0 h, oral Panax notoginseng, read-out: Concentration in plasma
  concentration at 1 h: 1900 ± 150 ng/mL
[1]; plasma, oral Panax notoginseng with Borneol, read-out: Concentration in plasma
  concentration at 3 h: 870 ± 40 ng/mL
[1]; plasma, oral Panax notoginseng, read-out: Concentration in plasma
  concentration at 3 h: 790 ± 20 ng/mL
[1]; plasma, 0.5 h, oral Panax notoginseng with Borneol, read-out: Concentration in plasma
  concentration at 0.5 h: 2680 ± 130 ng/mL
[1]; plasma, 1.0 h, oral Panax notoginseng with Borneol, read-out: Concentration in plasma
  concentration at 1 h: 2420 ± 80 ng/mL
[2]; [3]
  Cmax: 1920 ± 220 ng/mL
  Tmax: 45 min
  CL/F: 150 ± 30 mL/min/kg
  half-life: 69.3 ± 5.8 min
  AUC(0-inf): 8910 ng·h/mL
  AUC(0-t): 7080 ng·h/mL
  K 10: 0.007 ± 0.003 min⁻¹
  K 12: 0.012 ± 0.004 min⁻¹
  K 21: 0.011 ± 0.005 min⁻¹
  K a: 0.025 ± 0.004 min⁻¹
  T lag: 0 ± 0 min
  V/F: 20.0 ± 4.7 L/kg
  t 1/2Ka: 27.7 ± 3.7 min
  t 1/2α: 35.0 ± 1.9 min
  α: 0.020 ± 0.004 min⁻¹
  β: 0.010 ± 0.002 min⁻¹
[2]; [4]
  Cmax: 3040 ± 240 ng/mL
  Tmax: 45 min
  CL/F: 143 ± 54 mL/min/kg
  half-life: 69.3 ± 15.2 min
  AUC(0-inf): 23300 ng·h/mL
  AUC(0-t): 8750 ng·h/mL
  K 10: 0.005 ± 0.001 min⁻¹
  K 12: 0.022 ± 0.005** min^−1
  K 21: 0.011 ± 0.003 min⁻¹
  K a: 0.034 ± 0.003** min^−1
  T lag: 0.61 ± 0.47 min
  V/F: 31.1 ± 6.9 L/kg
  t 1/2Ka: 20.3 ± 4.2 min
  t 1/2α: 25.2 ± 2.4 min
  α: 0.027 ± 0.008 min⁻¹
  β: 0.010 ± 0.001 min⁻¹
